Several values for one entry are separate records, joined by “and”; a condition that tells them apart may be missing. Equal values may be shown once. ± gives the expanded uncertainty stated by the source.
Experiment: activity coefficient (dimensionless); of the first substance listed, at infinite dilution; xn = mol fraction of the nth substance listed
Conditions: 101 kPa, Liquid, x1 = 0

Row | SMILES | activity coefficient (301.8 K) | activity coefficient (312.4 K) | activity coefficient (322.9 K) | activity coefficient (333.2 K) | activity coefficient (344 K) | activity coefficient (354.3 K) | activity coefficient (323.1 K) | activity coefficient (333.5 K) | activity coefficient (354.5 K) | activity coefficient (364.9 K) | activity coefficient (375.4 K) | activity coefficient (386.1 K) | activity coefficient (333.4 K) | activity coefficient (343.9 K) | activity coefficient (354.4 K) | activity coefficient (364.8 K) | activity coefficient (375.2 K) | activity coefficient (386 K) | activity coefficient (396 K)
1 | CO [methanol] + CCCCCC[n+]1ccn(C)c1.O=S(=O)([N-]S(=O)(=O)C(F)(F)F)C(F)(F)F | 1.46 [middle of 4 runs] | 1.29 [middle of 5 runs] | 1.15 and 1.25 and 1.22 | 1.1 [middle of 4 runs] | 1 [middle of 4 runs] | 0.87 and 0.93 and 0.9 |  |  |  |  |  |  |  |  |  |  |  |  | 
2 | CCCCO [butan-1-ol] + CCCCCC[n+]1ccn(C)c1.O=S(=O)([N-]S(=O)(=O)C(F)(F)F)C(F)(F)F |  |  |  |  | 1.61 [middle of 5 runs] |  | 1.99 and 1.98 and 2.06 | 1.83 [middle of 4 runs] | 1.46 [middle of 5 runs] | 1.34 [middle of 4 runs] | 1.23 and 1.28 | 1.14 ± 0.12 |  |  |  |  |  |  | 
3 | CCCCCCO [hexan-1-ol] + CCCCCC[n+]1ccn(C)c1.O=S(=O)([N-]S(=O)(=O)C(F)(F)F)C(F)(F)F |  |  |  |  |  |  |  |  |  |  |  |  | 2.57 ± 0.47 | 2.32 and 2.25 and 2.37 | 2.14 [middle of 7 runs] | 1.95 [middle of 5 runs] | 1.8 [middle of 5 runs] | 1.67 and 1.69 and 1.7 | 1.56 ± 0.25
